The values below come from patent US20180251425A1, “2,3,5 TRISUBSTITUTED PYRROLE DERIVATIVES AS TOPOISOMERASE INHIBITORS AND THERAPEUTIC USES THEREOF” (UNIVERSITY OF MYSORE, priority 2015, published 2018).

Molecules are shown by their SMILES.

For one series, the system named is MCF7. Nature of the series: Cytotoxicity in MCF7 cells. Conditions: Homo sapiens, read-out: Cytotoxicity IC 50 in μM (Cell lines) MCF7. Format: cell-based. The protocol: (§1) Human cancer cell lines, K562, MCF7, HeLa and HEK 293T were purchased from National Centre for Cell Science, Pune, India. Cells were grown in RPMI 1640/MEM/DMEM supplemented with 10% heat-inactivated fetal bovine serum (FBS), 100 U/mL of Penicillin, and 100 μg of streptomycin/mL and incubated at 37° C. in a humidified atmosphere containing 5% CO2.
(§2) The human T cell leukemia cell line Molt4, Human acute lymphoblastic leukemia (ALL) cell line Nalm6, Human acute myelocytic leukemia (AML) cell line Reh, chronic myelogenous leukemia (CML) cell line K562, Human breast adenocarcinoma cell lines like MCF7 and human kidney cell line HEK 293T (Human embryonic kidney cell line) were selected for the purpose of preliminary anticancer screening of newly synthesized compounds (ASR1 to ASR15). To check the cytotoxicity, trypan blue dye exclusion assays, MTT assay were employed as described earlier Further, Cell cycle analysis, Mitochondrial membrane potential, Annexin-V FITC staining assay were also performed in order to understand the mode of cell death after treatment with ASR6. Further, ASR6 was also tested for its ability to inhibit topoisomerase I and II activity in vitro.
(§3) Cytotoxic effect of the newly synthesized compounds against leukemic cells was assessed using 3-(4, 5-dimethyl-2-yl02, 5-diphenyl tetrazolium bromide (MTT) assay. After exposure of compound at different concentration (0.01, 0.1, 0.5, 1, 10, 50 and 100 μM) cells were harvested and transferred into 96 well plate, MTT (5 mg/ml) was added and incubate at 37° C. for 4 h and formazan crystals were dissolved by adding solubilizing agent (10% SDS and 50% dimethyl formamide) for 1 h, finally plate was read at 570 nm (Bio-Rad, USA). Results were represented as inhibition of percentage of cell proliferation in bar diagram (n=3) (FIGS. 1 A, C, E and G).
(§4) To determine the growth inhibitory activity of the drug, 0.5×10^5 cell/ml were plated in 24 well (Biofil, USA.) in 1 ml of complete medium and treated with various concentration of the compound to test, cells were stained with 0.4% trypan blue and counted on a hemocytometer after treatment with compounds at 48 and 72 h time point. Results were represented as number of viable cells/ml in bar diagram (FIGS. 1 B, D, F, and H) (n=3).

Series [1] relates to Molt4 cells. Nature of the series: Annexin V-FITC/PI staining for apoptosis. It is filed as cell-based, Human. Conditions: 0.25 & 0.5 μM, 48 h. The protocol: To identify induction of apoptosis after treatment withASR6 in Molt4 cells, annexin V-FITC and propidium iodide staining was carried out. Briefly, Molt4 cells (0.5×10^5 cells per ml) were seeded in 24 well plate and treated with ASR6 (0.25 & 0.5 μM; 48 h). Cells were washed with 1× phosphate buffered saline and suspended in cell binding buffer, stained with Annexin V-FITC (0.2 mg/ml) and propidium iodide (0.05 mg/ml)(Santacruz, USA), and incubated in dark for 20 min at room temperature. Finally cells were subjected to FACS analysis (FACSVerse™BD Bioscience, USA) (10,000 cells were acquired). The results were analyzed in WinMDI 2.9 Software, bar diagram was plotted using at least two independent experiments with error bar.

A short description of series [2]: Cytotoxicity in HEK293T cells. It is filed as cell-based. Conditions: human, HEK293T cells (human embryonic kidney); read-out: Cytotoxicity IC 50 in μM (Cell lines) HEK293T. The method, then: as §1
The human T cell leukemia cell line Molt4, Human acute lymphoblastic leukemia (ALL) cell line Nalm6, Human acute myelocytic leukemia (AML) cell line Reh, chronic myelogenous leukemia (CML) cell line K562, Human breast adenocarcinoma cell lines like MCF7 and human kidney cell line HEK 293T (Human embryonic kidney cell line) were selected for the purpose of preliminary anticancer screening of newly synthesized compounds (ASR1 to ASR15). […]
To determine the growth inhibitory activity of the drug, 0.5×10^5 cell/ml were plated in 24 well (Biofil, USA.) in 1 ml of complete medium and treated with various concentration of the compound to test, cells were stained with 0.4% trypan blue and counted on a hemocytometer after treatment with compounds at 48 and 72 h time point. […]

For series [3], the system named is Molt4 cells. Nature of the series: Mitochondrial membrane potential assay (JC-1). The settings on record: Molt4 cells, 0.1, 0.25 and 0.5 μM, 48 h. Format: cell-based, Human. The protocol:
Molt4 cells were seeded in 12 well plate (0.5×10^5 cells/ml), treated with different concentration of ASR6 for 48 h, (DMSO treated cells was used as vehicle control), washed with 1× phosphate buffered saline and stained with JC-1 dye (5,5′,6,6′-Tetrachloro-1,1′,3,3′-tetraethylbenzimidazolo carbocyanine iodide (0.5 μg/ml) (Calbiochem, USA) in 1 ml of media, incubated at 37° C. for 30 min. Samples were washed with phosphate buffered saline and finally resuspended the cell pellet in 300 μl of 1× phosphate buffered saline and acquired (FACSVerse™, BD Biosciences, USA) using Cell Quest Pro Software. Minimum of 10,000 cells were acquired per sample and 2, 4-Dinitrophenol (2, 4-DNP) used as positive control. Results were analyzed Flowing Software (Version 2.5) and data were presented.

Another series has as its system Molt4. In words: Cytotoxicity (MTT / trypan blue) in Molt4 cells. Conditions: Homo sapiens, MOLT-4, read-out: Cytotoxicity IC 50 in μM (Cell lines) Molt4. Format: cell-based. The method, then: as §1
Nalm6, Molt4 and Reh cells were provided by Dr. Sathees C. Raghavan, Department of Biochemistry, IISc, Bangalore. The cells were grown under the similar culture conditions as mentioned above.
as §2, §3, §4

Series [4] concerns Molt4 cells. Nature of the series: Cell cycle analysis (propidium iodide, flow cytometry). Format: cell-based, Human. The settings on record: Molt4 cells, 0.01, 0.1, 0.25 and 0.5 μM, concentration dependent. The method, then: The DNA content analysis was performed by using Flow cytometer, Molt4 cells seeded (0.5×10^5 cells/ml) in 6 well plate and treated with different concentrations of ASR6 (0.01, 0.1, 0.25 and 0.5 μM) at 37° C. for 48 h. After incubation cells were harvested, processed and fixed in 80% chilled ethanol. Overnight treated with RNase-A (50 μg/ml) incubated at 37° C. Further cells stained with propidium iodide (5 μg/ml) and cell cycle progression was monitored using flow cytometer (FACSVerse™ BD Biosciences, USA). A minimum of 10000 cells were recorded. Results were analyzed using Flowing Software (Version 2.5) and plotted histograms.
In FIG. 2 A, B histograms representing different phases of cell cycle distribution of ASR6 (0.01, 0.1, 0.25 and 0.5 μM for 24 h and 48 h) treated Molt4 cells is shown.

In a further series the test system is HeLa. In words: Cytotoxicity in HeLa cells. It is filed as cell-based. Conditions: Homo sapiens, read-out: Cytotoxicity IC 50 in μM (Cell lines) HeLa. The method, then:
as §1
as §3, with “G). […]” for “G).”

The subject of the next series is K562. In words: Cytotoxicity (MTT / trypan blue) in K562 cells. It is filed as cell-based. Conditions: Homo sapiens, read-out: Cytotoxicity IC 50 in μM (Cell lines) K562. The method, then:
as §1, §2, §3, §4

Take `CCOC(=O)c1[nH]c(-c2ccc(Cl)cc2)cc1-c1cccnc1` [ASR6, Ethyl 5-(4-chlorophenyl)-3-(pyridin-3-yl)-1H-pyrrole-2-carboxylate]: the IC50 with MCF7 was 0.884 µM; in series [2] it was 0.866 µM; in the series with Molt4, 0.195 µM; in the series with HeLa it was 0.749 µM; with K562, 0.512 µM. Further, the “Apoptotic cell population (annexin V-FITC/PI)” value in the series on Molt4 cells [1] was “significant increase in apoptotic cell population”. Also, the Mitochondrial membrane potential result in the series on Molt4 cells [3] is “reduction in mitochondrial membrane potential”. Further, the “Cell cycle progression at 24 h” value in the series with Molt4 cells [4] (24 h) was “G2/M arrest”. The “Cell cycle progression at 48 h” value with Molt4 cells [4] (48 h) is “SubG1 phase (apoptosis)”.
